From article PMC10245146, “CNS4 causes subtype‐specific changes in agonist efficacy and reversal potential of permeant cations in NMDA receptors” (Pharmacology Research & Perspectives, 2023)
Several values for one entry are separate records, joined by “and”; a condition that tells them apart may be missing. Equal values may be shown once.

Experiments:
GluN1/2D NMDA receptors = target: T1, GluN1/2D NMDA receptors (UniProt O15399+P35439); experiment: TEVC antagonist block of agonist-induced currents, 1/2D; type: cell-based; details: 100 μM glutamate and glycine
T1 construct: host or cells: Xenopus oocytes (cRNA injection)
T1 sequence (O15399 28-1336, other chains not shown): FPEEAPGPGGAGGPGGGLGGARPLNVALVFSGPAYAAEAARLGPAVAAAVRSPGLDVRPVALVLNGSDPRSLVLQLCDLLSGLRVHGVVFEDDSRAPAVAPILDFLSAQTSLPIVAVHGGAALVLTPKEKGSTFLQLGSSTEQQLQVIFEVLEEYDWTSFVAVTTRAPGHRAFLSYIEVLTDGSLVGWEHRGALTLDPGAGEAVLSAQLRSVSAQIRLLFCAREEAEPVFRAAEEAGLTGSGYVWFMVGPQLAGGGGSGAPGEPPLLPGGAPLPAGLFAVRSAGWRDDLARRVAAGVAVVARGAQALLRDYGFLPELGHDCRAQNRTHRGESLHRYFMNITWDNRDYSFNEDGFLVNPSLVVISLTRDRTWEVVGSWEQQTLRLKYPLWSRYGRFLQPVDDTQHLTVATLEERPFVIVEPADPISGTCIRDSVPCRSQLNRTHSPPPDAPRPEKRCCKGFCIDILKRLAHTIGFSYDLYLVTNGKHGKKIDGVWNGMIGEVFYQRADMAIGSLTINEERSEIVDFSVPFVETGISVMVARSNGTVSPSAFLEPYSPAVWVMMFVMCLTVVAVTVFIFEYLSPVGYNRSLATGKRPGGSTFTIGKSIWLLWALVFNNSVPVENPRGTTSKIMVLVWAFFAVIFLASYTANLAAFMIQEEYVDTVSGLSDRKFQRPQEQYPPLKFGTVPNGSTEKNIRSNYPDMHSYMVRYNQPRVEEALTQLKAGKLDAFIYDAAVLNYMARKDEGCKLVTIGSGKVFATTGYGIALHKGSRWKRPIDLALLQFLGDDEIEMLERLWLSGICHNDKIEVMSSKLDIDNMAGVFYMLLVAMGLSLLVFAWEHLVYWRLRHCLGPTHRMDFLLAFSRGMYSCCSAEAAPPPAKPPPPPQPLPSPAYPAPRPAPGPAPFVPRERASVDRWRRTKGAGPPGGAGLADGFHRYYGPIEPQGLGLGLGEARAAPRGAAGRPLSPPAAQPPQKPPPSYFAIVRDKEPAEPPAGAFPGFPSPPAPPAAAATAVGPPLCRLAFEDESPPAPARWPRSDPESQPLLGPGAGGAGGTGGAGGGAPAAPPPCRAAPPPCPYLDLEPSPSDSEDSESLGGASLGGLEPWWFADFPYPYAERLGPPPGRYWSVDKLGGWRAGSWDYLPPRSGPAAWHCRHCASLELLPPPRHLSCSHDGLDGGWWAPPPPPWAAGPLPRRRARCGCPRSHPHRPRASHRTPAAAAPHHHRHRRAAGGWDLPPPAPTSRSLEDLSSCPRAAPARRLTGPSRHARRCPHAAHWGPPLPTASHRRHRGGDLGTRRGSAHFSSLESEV
Procedure: (§1) Electrophysiological responses were measured using a standard two‐microelectrode voltage‐clamp workstation (Warner Instruments model OC‐725C) designed to provide a fast clamp of large cells. The recording buffer contained 116 mM NaCl, 2 mM KCl, 0.3 mM BaCl2, and 5 mM HEPES, pH 7.4. Response magnitude was determined in Xenopus oocytes expressing different NMDA receptor subunits (GluN1/2A, 1/2B, 1/2C, 1/2D, and 1/2A/2B) by the steady plateau response elicited by bath application of different agonist concentrations. […] All data points were obtained from the steady state currents unless stated otherwise. Dose–response relationships were fit to an appropriate curve‐fitting equation using GraphPad Prism‐7. Non‐linear regression was used to calculate EC50, IC50, and fold change or percentage maximal response. Curves were fit using the following equations as performed in the previous studies, [37]: Y=100/1+10^LogEC50−XorY=Bottom+Top−Bottom/1+10^LogEC50−X . Statistical significance was determined at the overall alpha level 0.05, using appropriate statistical methods as described in all figure captions. Technical and biological replicates are explicitly mentioned in each figure legend, as n = X (Y). X represents technical repeats (number of traces) and Y represents biological repeats (number of oocytes or HEK293T cells studied). […] For the data sets with nonparametric distribution, Wilcoxon signed rank test is a nonparametric test was used (Figure 1). Paired or unpaired t‐tests were for used only compare the datasets obtained with and without CNS4 dose response curves.
(§2) If CNS4 directly competes with GluN1 or GluN2 competitive antagonists or indirectly influences the activity, there should be a change in DCKA and/ or DL‐AP5 activity in blocking agonist‐induced currents.
FIGURE 4 Effect of CNS4 on competitive and uncompetitive NMDA receptor antagonists. […] A similar experiment was performed with 100 μM DL‐AP5. […] Paired student‐t test was performed to calculate the statistical significance. […]

GluN1/2A NMDA receptors = target: T2, GluN1/2A NMDA receptors (UniProt P35439+Q12879); experiment: TEVC antagonist block of agonist-induced currents, 1/2A; type: cell-based; details: 100 μM glutamate and glycine, n = 7 (7)
T2 construct: expressed in transfected cells; host or cells: Xenopus oocytes (cRNA injection)
T2 sequence (Q12879 23-1464, other chains not shown): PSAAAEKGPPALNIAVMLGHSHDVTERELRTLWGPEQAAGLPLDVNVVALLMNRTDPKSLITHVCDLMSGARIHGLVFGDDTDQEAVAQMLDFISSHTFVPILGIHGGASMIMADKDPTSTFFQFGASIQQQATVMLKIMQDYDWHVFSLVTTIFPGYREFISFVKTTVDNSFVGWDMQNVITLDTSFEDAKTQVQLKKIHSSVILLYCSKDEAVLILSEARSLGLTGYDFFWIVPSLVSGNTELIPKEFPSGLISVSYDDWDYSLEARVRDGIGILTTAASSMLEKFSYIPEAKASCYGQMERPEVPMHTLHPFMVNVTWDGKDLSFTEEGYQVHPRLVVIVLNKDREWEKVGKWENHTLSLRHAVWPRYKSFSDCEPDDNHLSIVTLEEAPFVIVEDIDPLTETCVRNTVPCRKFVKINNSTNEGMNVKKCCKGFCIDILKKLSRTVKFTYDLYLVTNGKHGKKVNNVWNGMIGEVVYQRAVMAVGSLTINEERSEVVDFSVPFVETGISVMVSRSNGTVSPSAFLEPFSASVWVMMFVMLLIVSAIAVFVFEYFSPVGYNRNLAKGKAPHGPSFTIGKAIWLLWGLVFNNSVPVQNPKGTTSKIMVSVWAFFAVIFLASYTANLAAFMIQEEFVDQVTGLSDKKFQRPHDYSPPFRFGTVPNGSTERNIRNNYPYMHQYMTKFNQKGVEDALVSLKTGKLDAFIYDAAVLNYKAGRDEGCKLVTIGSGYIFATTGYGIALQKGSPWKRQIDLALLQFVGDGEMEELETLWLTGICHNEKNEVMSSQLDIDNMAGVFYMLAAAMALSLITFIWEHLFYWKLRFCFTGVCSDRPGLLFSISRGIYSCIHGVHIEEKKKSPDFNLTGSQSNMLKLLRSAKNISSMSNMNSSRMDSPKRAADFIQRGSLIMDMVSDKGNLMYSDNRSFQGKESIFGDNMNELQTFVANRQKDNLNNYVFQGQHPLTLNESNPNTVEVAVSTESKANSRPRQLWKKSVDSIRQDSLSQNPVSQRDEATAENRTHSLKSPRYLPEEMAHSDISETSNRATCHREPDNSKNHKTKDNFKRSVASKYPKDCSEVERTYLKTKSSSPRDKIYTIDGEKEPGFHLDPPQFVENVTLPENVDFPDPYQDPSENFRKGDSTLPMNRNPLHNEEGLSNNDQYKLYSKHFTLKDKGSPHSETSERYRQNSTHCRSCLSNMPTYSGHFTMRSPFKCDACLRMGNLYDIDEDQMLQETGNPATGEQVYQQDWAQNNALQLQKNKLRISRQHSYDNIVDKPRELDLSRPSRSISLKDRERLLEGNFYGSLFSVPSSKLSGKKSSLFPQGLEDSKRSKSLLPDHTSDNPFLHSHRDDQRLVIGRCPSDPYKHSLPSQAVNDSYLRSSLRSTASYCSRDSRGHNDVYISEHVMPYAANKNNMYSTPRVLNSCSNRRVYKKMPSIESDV
Procedure: as §1, §2
FIGURE 4 Effect of CNS4 on competitive and uncompetitive NMDA receptor antagonists. […] A similar experiment was performed with 100 μM DL‐AP5. […] Paired student‐t test was performed to calculate the statistical significance. […] Unpaired student‐t test was performed to calculate the statistical significance. *p < .05; NS, not significant.

1/2A NMDA receptor = details: read-out: Glutamate potency EC50; cited from earlier work
1/2D NMDA receptor = details: read-out: Glutamate potency EC50; cited from earlier work
[1] = system: GluN1/2A/2B triheteromeric (1/2AB) NMDA receptors; experiment: TEVC agonist dose-response, Xenopus oocytes expressing 1/2AB; type: cell-based; details: without CNS4; 100 μM glutamate constant; relative to 1 μM glycine
Description: NMDA receptor constructs: cDNA encoding the NMDA receptor1a subunit (GluN1a) was obtained from Dr. Nakanishi (Kyoto, Japan). cDNA encoding the GluN2B (pci_sepGluN2B), originally developed in the Malinow lab,[33] was purchased from Addgene (cat# 23998), Cambridge, MA. cDNA encoding the GluN2C and GluN2D were purchased from GenScript, New Jersey, USA. Mutated GluN1, 2A and 2B cDNA constructs capable of assembling as GluN1/2A/2B triheteromeric (1/2AB) receptors[34] were obtained from Dr. Paoletti (Laboratoire de Neurobiologie, CNRS). These constructs have been previously tested for 1/2AB receptor activity of GluN1/2A receptor‐selective potentiators.[35] […] Plasmids were linearized with NotI (GluN1a and all five GluN1 mutants) or Avrll (GluN2B), or BstB1 (GluN2C and GluN2D) and transcribed in vitro with T7 (GluN1a, GluN1/2A, GluN2B, GluN2C & GluN2D), and SP6 (GluN1 mutants) RNA polymerase using the mMessage mMachine transcription kits (Invitrogen by Thermo Fisher Scientific).
Stage IV frog oocytes were obtained from Xenopus‐I, (Ann Arbor, MI, USA). NMDA receptor subunit cRNAs were suspended in nuclease free sterile water. GluN1A, GluN2B, GluN2C, GluN2D and GluN1/2A/2B cRNAs were mixed in a ratio of 1:1–3. 50 nL of the final cRNA mixture was microinjected (40–70 ng total) into the oocyte cytoplasm. Oocytes were incubated in ND‐96 solution at 18°C prior to electrophysiological recordings (2–5 days).
Electrophysiological responses were measured using a standard two‐microelectrode voltage‐clamp workstation (Warner Instruments model OC‐725C) designed to provide a fast clamp of large cells. The recording buffer contained 116 mM NaCl, 2 mM KCl, 0.3 mM BaCl2, and 5 mM HEPES, pH 7.4. Response magnitude was determined in Xenopus oocytes expressing different NMDA receptor subunits (GluN1/2A, 1/2B, 1/2C, 1/2D, and 1/2A/2B) by the steady plateau response elicited by bath application of different agonist concentrations. […] All data points were obtained from the steady state currents unless stated otherwise. Dose–response relationships were fit to an appropriate curve‐fitting equation using GraphPad Prism‐7. Non‐linear regression was used to calculate EC50, IC50, and fold change or percentage maximal response. Curves were fit using the following equations as performed in the previous studies, [37]: Y=100/1+10^LogEC50−XorY=Bottom+Top−Bottom/1+10^LogEC50−X . Statistical significance was determined at the overall alpha level 0.05, using appropriate statistical methods as described in all figure captions. Technical and biological replicates are explicitly mentioned in each figure legend, as n = X (Y). X represents technical repeats (number of traces) and Y represents biological repeats (number of oocytes or HEK293T cells studied). […]

[2] = 100 μM antagonist plus 100 μM CNS4

**Q.** What does the source list for `NC(CCCP(=O)(O)O)C(=O)O` (stereo not drawn) [DL‐AP5]?
**A.** Block of agonist-induced currents (GluN1/2D NMDA receptors; 100 μM antagonist alone): 18.28 ± 10.47% and ~ 18%; Block of agonist-induced currents (GluN1/2D NMDA receptors; [2]): 5.96 ± 10.59%; Block of agonist-induced currents (GluN1/2A NMDA receptors; 100 μM antagonist alone): 39.53 ± 1.22% and ~ 39%; Block of agonist-induced currents (GluN1/2A NMDA receptors; [2]): 38.10 ± 1.28%

**Q.** With `N[C@@H](CCC(=O)O)C(=O)O` [glutamate, L‐glutamate] as the compound, how does the EC50 (1/2A NMDA receptor) read?
**A.** The EC50 was ~3000 nM.

**Q.** And the EC50 (1/2D NMDA receptor)?
**A.** Its EC50 is ~500 nM.

**Q.** Which “Glycine efficacy: relative fold change in current at highest glycine concentration” value [1] does the source give for `NCC(=O)O` [glycine, reference compound] here?
**A.** The value was 2.37 ± 0.23 fold.

**Q.** With `O=C(O)c1cc(=O)c2c(Cl)cc(Cl)cc2[nH]1` [DCKA] as the compound, how does the “Block of agonist-induced currents” value (GluN1/2D NMDA receptors; [2]) read?
**A.** Its value is 62.09 ± 2.27%.

**Q.** And the “Block of agonist-induced currents” value (GluN1/2A NMDA receptors; 100 μM antagonist alone)?
**A.** The value was 97.85 ± 0.66%.

**Q.** What about the “Block of agonist-induced currents” value (GluN1/2A NMDA receptors; [2]) of the same compound?
**A.** Its value is 98.98 ± 0.21%.
